Reference: article PMC4640888, “Discovery and Characterization of a Potent Interleukin-6 Binding Peptide with Neutralizing Activity In Vivo” (PLoS ONE, 2015)
One block for each molecule: values may come before it. Positions of bridges follow the written chain, without caps; N, C: chain ends. Non-standard residues stand in square brackets, D forms with d. Residues, ends and D or L forms follow the SMILES beside them. Phe(4-F) = N[C@@H](Cc1ccc(F)cc1)C(=O)O; Gla = N[C@@H](CC(C(=O)O)C(=O)O)C(=O)O; Cha = N[C@@H](CC1CCCCC1)C(=O)O

Assays:
IL-6/IL-6R = biological target: T1, IL-6/IL-6R (Homo sapiens, UniProt P05231); test: IL-6 – IL-6R competition ELISA; type: binding; settings: compared to PN-1454
T1 construct: purchased PeproTech
T1 sequence (P05231 30-212): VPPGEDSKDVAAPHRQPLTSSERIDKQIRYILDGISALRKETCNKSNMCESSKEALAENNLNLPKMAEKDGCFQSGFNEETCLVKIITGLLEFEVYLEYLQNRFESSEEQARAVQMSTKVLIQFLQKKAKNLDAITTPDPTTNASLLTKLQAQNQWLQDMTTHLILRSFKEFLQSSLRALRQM
Method: Peptides were initially evaluated using a competitive enzyme-linked immunosorbent assay (ELISA). High binding 96-well microtiter plates (half-area, Corning Life Sciences, Corning, NY)) were coated with 0.1 μg per well of IL-6R (PeproTech, Rocky Hill, NJ) overnight at 4°C. The wells were then blocked for 2 h with a 1% BSA (Sigma, St. Louis, MO) solution containing 0.1% Tween-20 (Amresco, Solon, OH) and subsequently washed with wash buffer (PBS containing 0.1% Tween-20). Peptides were serially diluted in assay buffer (0.1% BSA, 0.05% Tween-20 in PBS) and incubated with a 50 pM biotinylated IL-6 (PeproTech) for 30 min at room temperature. This mixture was then transferred to an assay plate, and the plate incubated for 1 h. The plate was washed with wash buffer, and presence of bound IL-6 detected through addition of streptavidin poly-horseradish peroxidase conjugate (Pierce, Rockford IL). Plates were developed using a TMB substrate kit (Pierce) and stopped with 2N H2SO4. Inhibition of complex formation was measured as a reduction in absorbance at 450 nm.

[1] = Comparative PK of PEGylated peptides in rats; type: in vivo; settings: rat; male rats, single SC dose 0.23 μmol/kg, plasma, LC-MS/MS, non-compartmental; read-out: PK half-life (t1/2) (converted)
Method: Male rats for pharmacokinetic studies were obtained from Harlan Laboratories (South Easton, MA. […] For all time points, blood samples were collected via retro-orbital eye bleed or exsanguination via abdominal aorta into tubes containing K2EDTA and were processed into plasma, which was placed in Eppendorf Protein LoBind tubes and stored frozen at approximately -70°C until quantitative bioanalysis.
The dosing solutions were formulated just prior to administration, in sterile 1X PBS with 0.1% BSA. Plasma sample extraction was performed by aliquoting 100 μL of each rat plasma sample into a standard 96-well plate. To each well, 400 μL of 5% formic acid in acetonitrile (containing 200 ng/mL of internal standard) was added. The plate was vortexed at high speed for approximately 10 min and then centrifuged for 15 min, 4700 x g at 4°C. Supernatant (425 μL) was transferred into a clean 96-well plate and evaporated to dryness under nitrogen at approximately 50°C. The extracts were then reconstituted in 50 μL of 1% formic acid in 60% acetonitrile.
Reconstituted extracts (5 μL) were analyzed by liquid chromatography-tandem mass spectrometry (LC-MS/MS) with positive electrospray ionization (QTrap 5500, AB SCIEX, Framingham, MA). […]

[2] = biological target: IL-6-induced pSTAT3 in U937 cells (Homo sapiens, UniProt P05231); test: pSTAT3 HTRF assay in U937 cells; type: cell-based
IL-6-induced pSTAT3 in U937 cells, sequence (P05231 30-212): as above
Method: Peptides were serially diluted in medium containing 10% fetal bovine serum (FBS)/4% DMSO, then added to recombinant IL-6 (Xtal Biostructures, Inc., Natick, MA) at 28.2 ng/mL and the resulting plate was incubated at room temperature with shaking for 2.5 h at 37°C. […] After incubation for 12 min at 37°C the cells were centrifuged at 4°C (1400 rpm for 5 min) and the media was removed from the plates. Cells were placed on ice and 50 μL lysis buffer (Cisbio Assays, Bedford MA) was added. Phosphorylation of STAT3 was detected as described by the provider (Cisbio Assays). Briefly, cells were lysed for 30 min at room temperature and then 16 μL of lysates was added to a 384-well Proxiplate (Perkin Elmer, Waltham, MA). Anti-STAT3-d2+anti pSTAT-3-K detection cocktail (4μL; Cisbio Assays) was then added to the wells and the plate covered with a plate sealer and returned to 4°C overnight. Plates were then read with an Envision plate reader at ex 340, em 615 and 665 nm. […] These mixtures were then added to U937 cells for 15 min at 37°C and pSTAT3 was detected as described above.

IL-6 = settings: cited from earlier work
Method: The inhibitory potency of PN-2921 was assessed in human whole blood ...

fold improvement in IC50 in the competitive ELISA (IL-6/IL-6R): ~ 20 fold
Molecule: CC[C@H](C)[C@@H]1NC(=O)[C@H](CCCCN)NC(=O)CNC(=O)[C@H](Cc2c[nH]c3ccccc23)NC(=O)[C@H](CCCNC(=N)N)NC(=O)[C@H](CCC(N)=O)NC(=O)[C@H](CCC(=O)O)NC(=O)[C@H](CO)NC(=O)[C@H](CC(N)=O)NC(=O)[C@H](CC(C)C)NC(=O)[C@H](CC(N)=O)NC(=O)[C@@H]2CCCN2C(=O)[C@H](CC(=O)O)NC(=O)[C@H](CC(C)C)NC(=O)[C@H](Cc2ccccc2)NC(=O)[C@H](C)NC(=O)[C@H](CCC(=O)O)NC(=O)[C@H](CC(C)C)NC(=O)[C@H](CC(C)C)NC(=O)[C@H](CCCNC(=N)N)NC(=O)[C@H](CCCNC(=N)N)NC(=O)[C@H]([C@@H](C)CC)NC(=O)[C@@H](NC(=O)[C@H](CCC(N)=O)NC(=O)[C@H](CC(C)C)NC(=O)[C@H](CC(N)=O)NC(=O)[C@H](Cc2ccccc2)NC(C)=O)CSSC[C@@H](C(N)=O)NC(=O)[C@H](CC(=O)O)NC(=O)[C@H](CC(=O)O)NC(=O)[C@H](CC(N)=O)NC(=O)[C@H]([C@@H](C)CC)NC(=O)[C@H](CO)NC(=O)[C@H](CC(=O)O)NC1=O [PN-1484] (Ac-FNLQCIRRLLEAFLDPNLNSEQRWGKIDSINDDC-NH2; disulfide 5-34 (inferred))

half-life [1]: 3.4 h
Molecule: CC[C@H](C)[C@@H]1NC(=O)[C@@H](NC(=O)[C@H](CC(=O)O)NC(=O)[C@H](CC2CCCCC2)NC(=O)[C@H](CC(=O)O)NC(=O)[C@H](CO)NC(=O)[C@H](CCC(N)=O)NC(C)=O)CSSC[C@@H](C(=O)N[C@@H](CCC(=O)O)C(=O)O)NC(=O)[C@H](CCC(=O)O)NC(=O)[C@H](CC(=O)O)NC(=O)[C@H](CC(N)=O)NC(=O)[C@H]([C@@H](C)CC)NC(=O)[C@H](CCCCN)NC(=O)[C@H](CC(C(=O)O)C(=O)O)NC(=O)[C@H]([C@@H](C)CC)NC(=O)[C@H](CCCCN)NC(=O)[C@H](CCC(=O)O)NC(=O)[C@H](Cc2c[nH]c3ccccc23)NC(=O)[C@H](CCCNC(=N)N)NC(=O)[C@H](CCC(N)=O)NC(=O)[C@H](CCC(=O)O)NC(=O)[C@H](CCC(=O)O)NC(=O)[C@H]([C@@H](C)O)NC(=O)[C@H](CC(C)C)NC(=O)[C@H](CC(N)=O)NC(=O)[C@@H]2CCCN2C(=O)[C@H](CC(=O)O)NC(=O)[C@H](CC(C)C)NC(=O)[C@H](Cc2ccc(F)cc2)NC(=O)[C@H](C)NC(=O)[C@H](CCC(=O)O)NC(=O)[C@H](CC(C)C)NC(=O)[C@H](CC(C)C)NC(=O)[C@H](CCCNC(=N)N)NC(=O)[C@H](Cc2c[nH]cn2)NC1=O [PN-2365] (Ac-QSD[Cha]DCIHRLLEA[Phe(4-F)]LDPNLTEEQRWEKI[Gla]KINDECE-OH; disulfide 6-35)

Molecule: CC[C@H](C)[C@@H]1NC(=O)[C@@H](NC(=O)[C@H](CC(=O)O)NC(=O)[C@H](CC2CCCCC2)NC(=O)[C@H](CC(=O)O)NC(=O)[C@H](CO)NC(=O)[C@H](CCC(N)=O)NC(C)=O)CSSC[C@@H](C(=O)N[C@@H](CCC(=O)O)C(=O)O)NC(=O)[C@H](CCC(=O)O)NC(=O)[C@H](CC(=O)O)NC(=O)[C@H](CC(N)=O)NC(=O)[C@H]([C@@H](C)CC)NC(=O)[C@H](CCCCN)NC(=O)[C@H](CC(C(=O)O)C(=O)O)NC(=O)[C@H]([C@@H](C)CC)NC(=O)[C@H](CCCNC(=N)N)NC(=O)[C@H](CCC(=O)O)NC(=O)[C@H](Cc2c[nH]c3ccccc23)NC(=O)[C@H](CCCNC(=N)N)NC(=O)[C@H](CCC(N)=O)NC(=O)[C@H](CCC(=O)O)NC(=O)[C@H](CCC(=O)O)NC(=O)[C@H]([C@@H](C)O)NC(=O)[C@H](CC(C)C)NC(=O)[C@H](CC(N)=O)NC(=O)[C@@H]2CCCN2C(=O)[C@H](CC(=O)O)NC(=O)[C@H](CC(C)C)NC(=O)[C@H](Cc2ccc(F)cc2)NC(=O)[C@H](C)NC(=O)[C@H](CCC(=O)O)NC(=O)[C@H](CC(C)C)NC(=O)[C@H](CC(C)C)NC(=O)[C@H](CCCNC(=N)N)NC(=O)[C@H](Cc2c[nH]cn2)NC1=O [PN-2519] (Ac-QSD[Cha]DCIHRLLEA[Phe(4-F)]LDPNLTEEQRWERI[Gla]KINDECE-OH; disulfide 6-35)
fold improvement in cell-based activity ([2]; compared to PN-1974, U937 pSTAT3): ~ 1000 fold | antagonist activity in the IL-6 pSTAT3 assay in U937 cells (Fig 2C) ([2]; effect of PEG molecular weight, PEGylation at position 29): comparable

Molecule: siltuximab: monoclonal antibody specific for IL-6
potency (IL-6): pM range
